Laboratory results as given in patent US5883102A, “Pharmaceutically active compounds” (Astra Pharmaceuticals Limited, priority 1995, dated 1999).
Structures can show the parent of a compound that is named as a salt.

Biological target: T1, human form of induced nitric oxide synthase (Homo sapiens, UniProt P35228)
T1 construct: Nitric oxide synthase is produced by cells in response to interferon; endogenous in cells; host or cells: DLD1 human colon adenocarcinoma cell line (European Collection of Animal Cell Culture, cell line number 90102540), induced with IL-1beta and IFN-gamma; crude lysate
Assay: activity against the human form of induced nitric oxide synthase, lysate of induced human colon adenocarcinoma cell line DLD1
Assay type: biochemical
Settings: IL-1β and IFN-γ induced, preincubated 1 hour at 37° C., then 1 hour at 37° C., read-out: IC50 (concentration of drug substance which gives 50% enzyme inhibition in the assay)
Method: Enzyme is prepared, after induction, from the cultured human colon adenocarcinoma cell line DLD1 (obtained from the European Collection of Animal Cell Culture--cell line number 90102540). DLD1 cells are cultured in RPMI 1640 medium supplemented with 10% foetal bovine serum, 4 mM L-glutamine and antibiotics (100 units/ml penicillin G, 100 μg/ml streptomycin and 0.25 μg/ml amphotericin B). Cells are routinely grown in 225 cm^3 flasks containing 35 ml kept at 37° C. and in a humified atmosphere containing 5% CO2.
Nitric oxide synthase is produced by cells in response to interferon-γ (IFN-γ) and inter-leukin-1β (IL-1β). The medium from confluent flasks is removed and replaced with 25 ml (per flask) of fresh medium containing 250 units/ml IL-1β and 1000 units/ml IFN-γ. After a period of 17-20 hours in culture, harvesting of cells is accomplished by scraping the cell monolayer from the flask surface into the culture medium. […]
Labelled L-citrulline is separated from labelled L-arginine using Dowex AG-50W. […] After allowing the samples to dry the L-citrulline is quantified by scintillation counting.
Compounds are tested at a range of concentrations and from the inhibitions obtained IC50 values are calculated.

## NC1=NC(c2ccccc2)Nc2ccccc21 (centres unmarked) [Example 1, 1,2-Dihydro-2-phenyl-4-quinazolinamine hydrochloride]
  IC50: < 25 µM

## CCOC(=O)NCCC1N=C(N)c2ccccc2N1 (centres unmarked) [Example 52, Ethyl N-(4-Amino-1,2-dihydroquinazolin-2-ylethyl)carbamate hydrochloride]
  IC50: < 25 µM
